The values that follow come from ChEMBL document CHEMBL2424609, “In silico accounting of novel pyridazine analogues as h-PTP 1B inhibitors: pharmacophore modelling, atom-based 3D QSAR and docking studies” (Med Chem Res, 2013).

The structures appear in SMILES notation.

This assay concerns the target T1, Tyrosine-protein phosphatase non-receptor type 1 (Homo sapiens, UniProt P18031).
T1 sequence (P18031 whole entry): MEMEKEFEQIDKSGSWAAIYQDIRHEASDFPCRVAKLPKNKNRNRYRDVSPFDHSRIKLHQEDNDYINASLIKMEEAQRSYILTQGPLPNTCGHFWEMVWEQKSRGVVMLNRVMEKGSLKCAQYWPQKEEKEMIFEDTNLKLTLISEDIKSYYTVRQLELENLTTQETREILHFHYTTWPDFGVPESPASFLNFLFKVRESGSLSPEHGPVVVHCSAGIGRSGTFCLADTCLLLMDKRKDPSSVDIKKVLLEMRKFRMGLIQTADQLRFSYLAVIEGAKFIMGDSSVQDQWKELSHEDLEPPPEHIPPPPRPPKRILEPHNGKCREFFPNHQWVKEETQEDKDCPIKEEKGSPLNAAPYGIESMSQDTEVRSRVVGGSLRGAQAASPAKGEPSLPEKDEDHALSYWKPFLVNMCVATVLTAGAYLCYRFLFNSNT
Briefly: Non-competitive reversible inhibition of human PTP1B.

On to `CC1(C)C=C2C(=NN(c3cccc(F)c3)C(N)=C2C#N)CO1`, for which the IC50 (read-out: IC50) worked out at 4.5 µM and the IC50 (read-out: pIC50 (converted)) was 4.5 µM.

Consider `CC1(C)C=C2C(=NN(c3ccccc3C(F)(F)F)C(N)=C2C#N)CO1`, for which the IC50 is 3.9 µM (read-out: IC50) and 3.9 µM (read-out: pIC50 (converted)).

For the molecule `CCOc1ccc(N2N=C3COC(C)(C)C=C3C(C#N)=C2N)cc1`, the IC50 (read-out: IC50) was found to be 3.2 µM and the IC50 (read-out: pIC50 (converted)) was 3.2 µM.

For the molecule `CC(C)c1ccc(N2N=C3CSCC=C3C(C#N)=C2N)cc1`, the IC50 was 5.6 µM (read-out: IC50) and 5.6 µM (read-out: pIC50 (converted)).

As to `COc1ccccc1N1N=C2COC(C)(C)C=C2C(C#N)=C1N`, the IC50 by setting is: (read-out: IC50) 6.2 µM; (read-out: pIC50 (converted)) 6.19 µM.

Take `CC1(C)C=C2C(=NN(c3cccc(CO)c3)C(N)=C2C#N)CO1`: the IC50 (read-out: IC50) is 2.4 µM and the IC50 (read-out: pIC50 (converted)) is 2.4 µM.

Regarding `CCCCc1ccc(N2N=C3COC(C)(C)C=C3C(C#N)=C2N)cc1`, the IC50 is 7 µM (read-out: IC50) and 7 µM (read-out: pIC50 (converted)).

Regarding `CC1(C)C=C2C(=NN(c3ccc(CO)cc3)C(N)=C2C#N)CO1`, the IC50 was 1.7 µM (read-out: IC50) and 1.7 µM (read-out: pIC50 (converted)).

Turning to `COc1ccc(N2N=C3COC(C)(C)C=C3C(C#N)=C2N)cc1`, the IC50 is 2.2 µM (read-out: IC50) and 2.2 µM (read-out: pIC50 (converted)).

Turning to `CC1(C)C=C2C(=NN(c3ccccc3Oc3ccccc3)C(N)=C2C#N)CO1`, the IC50 (read-out: IC50) was found to be 15.8 µM and the IC50 (read-out: pIC50 (converted)) was 15.8 µM.

Turning to `CC1(C)C=C2C(=NN(c3ccccc3[N+](=O)[O-])C(N)=C2C#N)CO1`, the IC50 (read-out: IC50) stood at 17.5 µM and the IC50 (read-out: pIC50 (converted)) is 17.5 µM.

In the case of `COC(=O)c1cccc(N2N=C3COC(C)(C)C=C3C(C#N)=C2N)c1`, the IC50 is 2.1 µM (read-out: IC50) and 2.1 µM (read-out: pIC50 (converted)).

As for `COc1cccc(N2N=C3COC(C)(C)C=C3C(C#N)=C2N)c1`, the IC50 is 3.6 µM (read-out: IC50) and 3.6 µM (read-out: pIC50 (converted)).

Regarding `CC1(C)C=C2C(=NN(c3ccc(Oc4ccccc4)cc3)C(N)=C2C#N)CO1`, the IC50 (read-out: IC50) is 22.7 µM and the IC50 (read-out: pIC50 (converted)) was 22.7 µM.

Consider `CC1(C)C=C2C(=NN(c3ccccc3N3CCOCC3)C(N)=C2C#N)CO1`, for which the IC50 reads like this: (read-out: IC50) 2.9 µM; (read-out: pIC50 (converted)) 2.9 µM.

For the molecule `CC(=O)Nc1cccc(N2N=C3COC(C)(C)C=C3C(C#N)=C2N)c1`, the IC50 is 2.3 µM (read-out: IC50) and 2.3 µM (read-out: pIC50 (converted)).

With `CC(=O)Nc1ccc(N2N=C3COC(C)(C)C=C3C(C#N)=C2N)cc1`, the IC50 runs as follows: (read-out: IC50) 6.1 µM; (read-out: pIC50 (converted)) 6.1 µM.

As for `COc1ccc(N2N=C3CSCC=C3C(C#N)=C2N)cc1`, the IC50 (read-out: IC50) was 1.3 µM and the IC50 (read-out: pIC50 (converted)) was 1.3 µM.

Regarding `CC1(C)C=C2C(=NN(c3ccccc3F)C(N)=C2C#N)CO1`, the IC50 (read-out: IC50) amounted to 2.4 µM and the IC50 (read-out: pIC50 (converted)) is 2.4 µM.

As for `CC1(C)C=C2C(=NN(c3ccc(CCO)cc3)C(N)=C2C#N)CO1`, the IC50 was 2.9 µM (read-out: IC50) and 2.9 µM (read-out: pIC50 (converted)).

Turning to `CCc1ccc(N2N=C3COC(C)(C)C=C3C(C#N)=C2N)cc1`, the IC50 (read-out: IC50) is 2.8 µM and the IC50 (read-out: pIC50 (converted)) is 2.8 µM.

In the case of `CC1(C)C=C2C(=NN(c3ccc(F)cc3)C(N)=C2C#N)CO1`, the IC50 is 4.9 µM (read-out: IC50) and 4.9 µM (read-out: pIC50 (converted)).

In the case of `N#CC1=C(N)N(c2ccc(F)cc2)N=C2CSCC=C21`, the IC50 reads like this: (read-out: IC50) 2 µM; (read-out: pIC50 (converted)) 2 µM.

In the case of `CC1(C)C=C2C(=NN(c3cccc(C(F)(F)F)c3)C(N)=C2C#N)CO1`, the IC50 (read-out: IC50) came out at 2.8 µM and the IC50 (read-out: pIC50 (converted)) was 2.8 µM.

Consider `CC1(C)C=C2C(=NN(c3ccccc3CO)C(N)=C2C#N)CO1`, for which the IC50 by setting is: (read-out: IC50) 11.1 µM; (read-out: pIC50 (converted)) 11.1 µM.

Consider `CC1(C)C=C2C(=NN(c3ccccc3)C(N)=C2C#N)CO1`, for which the IC50 (read-out: IC50) amounted to 5.7 µM and the IC50 (read-out: pIC50 (converted)) is 5.7 µM.

As to `N#CC1=C(N)N(c2ccccc2)N=C2COCC=C21`, the IC50 reads like this: (read-out: IC50) 0.35 µM; (read-out: pIC50 (converted)) 0.35 µM.

Regarding `CC(C)c1cccc(N2N=C3COC(C)(C)C=C3C(C#N)=C2N)c1`, the IC50 was 8.2 µM (read-out: IC50) and 8.2 µM (read-out: pIC50 (converted)).

In the case of `CCc1cccc(N2N=C3COC(C)(C)C=C3C(C#N)=C2N)c1`, the IC50 is, setting by setting: (read-out: IC50) 8.2 µM; (read-out: pIC50 (converted)) 8.2 µM.

As to `CC(C)c1ccccc1N1N=C2CSCC=C2C(C#N)=C1N`, the IC50 runs as follows: (read-out: IC50) 2 µM; (read-out: pIC50 (converted)) 2 µM.

With `N#CC1=C(N)N(c2ccccc2)N=C2CCCC=C21`, the IC50 (read-out: IC50) came to 10.4 µM and the IC50 (read-out: pIC50 (converted)) was 10.4 µM.

Take `CCc1ccccc1N1N=C2COC(C)(C)C=C2C(C#N)=C1N`: the IC50 reads like this: (read-out: IC50) 1.6 µM; (read-out: pIC50 (converted)) 1.6 µM.

For `CCCCc1ccccc1N1N=C2COC(C)(C)C=C2C(C#N)=C1N`, the IC50 was 1.5 µM (read-out: IC50) and 1.5 µM (read-out: pIC50 (converted)).

Regarding `N#CC1=C(N)N(c2ccccc2)N=C2CSCC=C21`, the IC50 is 1.1 µM (read-out: IC50) and 1.1 µM (read-out: pIC50 (converted)).

As to `CCOc1ccccc1N1N=C2COC(C)(C)C=C2C(C#N)=C1N`, the IC50 (read-out: IC50) is 3.4 µM and the IC50 (read-out: pIC50 (converted)) is 3.4 µM.

`CC1(C)C=C2C(=NN(c3cccc(Oc4ccccc4)c3)C(N)=C2C#N)CO1`: the IC50 reads like this: (read-out: IC50) 3.9 µM; (read-out: pIC50 (converted)) 3.9 µM.

As for `N#CC1=C(N)N(c2ccccc2F)N=C2CSCC=C21`, the IC50 is, setting by setting: (read-out: IC50) 4.4 µM; (read-out: pIC50 (converted)) 4.4 µM.
